Drawing on patent publication US9073876B2, “Flap modulators” (JANSSEN PHARMACEUTICA NV, priority 2013, dated 2015), this text covers Ki and IC50 for ten compounds.

Each structure is given as a SMILES string.

For orientation: Ki means the dissociation constant of the complex between target and ligand, obtained from inhibition or displacement. As a reminder, the IC50 is the concentration that inhibits the measured activity by half.

For one assay, the target named is human FLAP (Homo sapiens (Human), UniProt P20292). Nature of the assay: FLAP binding assay (HTRF). The conditions noted are these: human FLAP-containing membranes, HTRF format; average of two assay plates, duplicates; read-out: FLAP Binding wild type HTRF Ki. The method in brief:
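Read-out is the HTRF ratio. Each reported figure averages two assay plates on which samples were tested in duplicate.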
Background: TR-FRET usually uses a lanthanide donor and a delayed reading to cut background.

Assay [1] concerns leukotriene pathway in human whole blood (LTB4 levels). Nature of the assay: Human whole blood assay (LTB4). It counts as cell-based. The conditions noted are these: human whole blood diluted 1:1 in RPMI, stimulated with calcium ionophore A23187; single replicate. The method in brief: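 Blood (heparin) diluted 1:1 RPMI; compound pre-incubation 15 min, 37° Celsius; A23187 7 μg/mL, 30 min, 37° Celsius; plasma LTB4 by commercial kit. IC50 via 4-parameter equation.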

human FLAP, sequence (P20292 whole entry): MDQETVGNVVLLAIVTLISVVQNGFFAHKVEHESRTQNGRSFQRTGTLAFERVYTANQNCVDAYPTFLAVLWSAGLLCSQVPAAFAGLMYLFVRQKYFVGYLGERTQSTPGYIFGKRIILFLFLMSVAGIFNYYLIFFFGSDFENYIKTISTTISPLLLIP

With `COc1cnc(Oc2c(C3CCC3)ccc(-c3cnc(N)cn3)c2F)nc1` [Example 94, 5-{4-Cyclobutyl-2-fluoro-3-[(5-methoxypyrimidin-2-yl)oxy]phenyl}pyrazin-2-amine], the Ki at human FLAP stood at 27 nM. Besides, the 50% inhibitory concentration (IC50) in assay [1] stood at 101 nM.
With `Nc1cnc(-c2ccc(C3CCC3)c(OCC(O)Cn3cnccc3=O)c2F)cn1` (racemic) [Example 52, racemic 3-(3-(3-(5-Aminopyrazin-2-yl)-6-cyclobutyl-2-fluorophenoxy)-2-hydroxypropyl)pyrimidin-4(3H)-one], the Ki on human FLAP was 366 nM. Besides, the IC50 in assay [1] was 680 nM.
Regarding `Nc1cnc(-c2ccc(C3CCC3)c(OCc3ccc(S(F)(F)(F)(F)F)cc3)c2F)cn1` [Example 79, 5-(4-Cyclobutyl-2-fluoro-3-{[4-(pentafluoro-lambda~6~- sulfanyl)benzyl]oxy}phenyl)pyrazin-2-amine], the Ki on human FLAP was found to be 250 nM. Moreover, in assay [1], the IC50 came to 2230 nM.
Consider `CSc1ccnc(Oc2c(C3CCC3)ccc(-c3cnc(N)cn3)c2F)n1` [Example 88, 5-(4-Cyclobutyl-2-fluoro-3-{[4-(methylsulfanyl)pyrimidin-2-yl]oxy}phenyl)pyrazin-2-amine], for which, on human FLAP, the Ki worked out at 4 nM. Further, the IC50 in assay [1] is 36.1 nM.
Regarding `Nc1cnc(-c2ccc(C3CCC3)c(O)c2F)cn1` [B, 3-(5-Aminopyrazin-2-yl)-6-cyclobutyl-2-fluorophenol], the inhibition constant Ki on human FLAP turned out to be 354 nM. Moreover, the IC50 in assay [1] is 960 nM.
In the same order, the values of `Nc1cnc(-c2ccc(C3CCC3)c(Oc3cccnn3)c2F)cn1` [Example 277, 5-[4-Cyclobutyl-2-fluoro-3-(pyridazin-3-yloxy)phenyl]pyrazin-2-amine] are 17.7 nM and 135 nM.
In the case of `Nc1cnc(-c2ccc(C3CCC3)c(Oc3ccnc(N)n3)c2F)cn1` [Example 130, 4-[3-(5-Aminopyrazin-2-yl)-6-cyclobutyl-2-fluorophenoxy]pyrimidin-2-amine], the Ki on human FLAP came to 3.7 nM. For the same compound, the IC50 in assay [1] came to 84.1 nM.
Regarding `Nc1cnc(-c2ccc(C3CCC3)c(OCC(O)CNc3cncnc3)c2F)cn1` (racemic) [Example 55, racemic 1-(3-(5-Aminopyrazin-2-yl)-6-cyclobutyl-2-fluorophenoxy)-3-(pyrimidin-5-ylamino)propan-2-ol], the Ki on human FLAP is 152 nM. The IC50 in assay [1] is 555 nM.
The corresponding values for `Nc1cnc(-c2ccc(C3CCC3)c(OCc3cccc(Cl)c3)c2F)cn1` [Example 35, 5-{3-[(3-Chlorobenzyl)oxy]-4-cyclobutyl-2-fluorophenyl}pyrazin-2-amine] are 173 nM and 1140 nM.
The corresponding values for `COC(=O)c1ccc(Oc2c(C3CCC3)ccc(-c3cnc(N)cn3)c2F)cc1` [Example 103, Methyl 4-[3-(5-aminopyrazin-2-yl)-6-cyclobutyl-2-fluorophenoxy]benzoate] are 35 nM and 675 nM.
